Test results reported in ChEMBL document CHEMBL4376820, “Homodimeric Tobramycin Adjuvant Repurposes Novobiocin as an Effective Antibacterial Agent against Gram-Negative Bacteria” (J Med Chem, 2019).
Activity calls are given as the source filed them. No cut-off for these calls is given here. Positions of bridges follow the written chain, without caps; N, C: chain ends. Non-standard residues stand in square brackets, D forms with d. Residues, ends and D or L forms follow the SMILES beside them. Dab = NCC[C@H](N)C(=O)O

Assays:
Pseudomonas aeruginosa [1] = test: Induction of outer membrane permeabilization in Pseudomonas aeruginosa PAO1 assessed as increase in accumulation of NPN by measuring fluorescence intensity at 8 ug/ml measured immediately by NPN dye uptake assay; assay type: organism-based
Acinetobacter baumannii [2] = test: Potentiation of novobiocin-induced antibacterial activity against colistin-resistant Acinetobacter baumannii 92247 clinical isolate assessed as novobiocin MIC at <= 7.1 uM incubated for 18 hrs by CLSI protocol based assay (reference value: 4 ug/ml); assay type: functional; settings: Acinetobacter baumannii, 92247, 18 h
Acinetobacter baumannii [3] = test: Potentiation of novobiocin-induced antibacterial activity against novobiocin and colistin resistant Acinetobacter baumannii ATCC 17978 mutant generated from seven serial passages by checkerboard assay; assay type: functional, organism-based
Pseudomonas aeruginosa [4] = test: Potentiation of novobiocin-induced antibacterial activity against carbapenem and colistin-resistant Pseudomonas aeruginosa 114228 clinical isolate assessed as novobiocin MIC at <= 7.1 uM incubated for 18 hrs by CLSI protocol based assay (reference value: 512 ug/ml); assay type: functional; settings: Pseudomonas aeruginosa, 114228, 18 h
Pseudomonas aeruginosa [5] = test: Potentiation of novobiocin-induced antibacterial activity against wild type Pseudomonas aeruginosa PAO1 assessed as novobiocin MIC at <= 7.1 uM incubated for 18 hrs by CLSI protocol based assay (reference value: 512 ug/ml); assay type: functional; settings: PAO1, 18 h
Escherichia coli [6] = test: Potentiation of novobiocin-induced antibacterial activity against colistin-resistant Escherichia coli 94393 clinical isolate harboring mcr-1 gene assessed as novobiocin MIC at <= 7.1 uM incubated for 18 hrs by CLSI protocol based assay (reference value: 128 ug/ml); assay type: functional; settings: Escherichia coli, 94393, 18 h
Klebsiella pneumoniae = test: Potentiation of novobiocin-induced antibacterial activity against colistin-resistant Klebsiella pneumoniae 113254 clinical isolate assessed as novobiocin MIC at <= 7.1 uM incubated for 18 hrs by CLSI protocol based assay (reference value: 256 ug/ml); assay type: functional; settings: Klebsiella pneumoniae, 113254, 18 h
Pseudomonas aeruginosa [7] = test: Potentiation of novobiocin-induced antibacterial activity against carbapenem and colistin-resistant Pseudomonas aeruginosa 91433 clinical isolate assessed as novobiocin MIC at <= 7.1 uM incubated for 18 hrs by CLSI protocol based assay (reference value: 16 ug/ml); assay type: functional; settings: Pseudomonas aeruginosa, 91433, 18 h
Enterobacter cloacae = test: Potentiation of novobiocin-induced antibacterial activity against colistin-resistant Enterobacter cloacae 118568 clinical solate assessed as novobiocin MIC at <= 7.1 uM incubated for 18 hrs by CLSI protocol based assay (reference value: 1024 ug/ml); assay type: functional; settings: Enterobacter cloacae, 118568, 18 h
Escherichia coli [8] = test: Potentiation of novobiocin-induced antibacterial activity against colistin-resistant Escherichia coli 94474 clinical isolate harboring mcr-1 gene assessed as novobiocin MIC at <= 7.1 uM incubated for 18 hrs by CLSI protocol based assay (reference value: 256 ug/ml); assay type: functional; settings: Escherichia coli, 94474, 18 h
Pseudomonas aeruginosa [9] = test: Potentiation of novobiocin-induced antibacterial activity against colistin and carbapenem-resistant Pseudomonas aeruginosa 101243 clinical isolate assessed as novobiocin MIC at <= 7.1 uM incubated for 18 hrs by CLSI protocol based assay (reference value: 128 ug/ml); assay type: functional; settings: Pseudomonas aeruginosa, 101243, 18 h
[10] = Toxicity in Galleria mellonella larvae MDR Acinetobacter baumannii isolate assessed as larvae protection at 25 mg/kg in combination with novobiocin measured after 24 to 96 hrs relative to control; assay type: ADME, organism-based; settings: in vivo

SMILES: CC(C)C[C@@H]1NC(=O)[C@@H](Cc2ccccc2)NC(=O)[C@H](CCN)NC(=O)[C@@H](NC(=O)[C@H](CCN)NC(=O)[C@@H](N)[C@@H](C)O)CCNC(=O)[C@H]([C@@H](C)O)NC(=O)[C@H](CCN)NC(=O)[C@H](CCN)NC1=O [POLYMYXIN B NONAPEPTIDE] (H-T[Dab][Dab][Dab][dF]L[Dab][Dab]T; lactam 3-C)
- Activity (Pseudomonas aeruginosa [1]): Active
- MIC (Acinetobacter baumannii [2]): 1 µg/mL
- Activity (Acinetobacter baumannii [3]): inactive
- MIC (Pseudomonas aeruginosa [4]): 128 µg/mL
- MIC (Pseudomonas aeruginosa [5]): 4 µg/mL
- MIC (Escherichia coli [6]): 4 µg/mL
- MIC (Klebsiella pneumoniae): 64 µg/mL
- MIC (Pseudomonas aeruginosa [7]): 4 µg/mL
- MIC (Enterobacter cloacae): 512 µg/mL
- MIC (Escherichia coli [8]): 32 µg/mL
- MIC (Pseudomonas aeruginosa [9]): 8 µg/mL
- Activity [10]: 35%
